Assay [1] deals with T1, prostate-specific membrane antigen (PSMA) (Homo sapiens, UniProt Q04609).
T1 construct: gene FOLH1
As to the kind of experiment: NIR fluorescence saturation binding to PSMA-positive […]1 cells (PSMA-negative PC3 M-LN4 control; LNCaP apparent Kd […]). The class given is cell-based.

Assay [2] addresses T1, prostate-specific membrane antigen (PSMA). As to the kind of experiment: competition of YC-27 […]CW binding to LNCaP cells. Format: cell-based.

T1 sequence (Q04609 whole entry): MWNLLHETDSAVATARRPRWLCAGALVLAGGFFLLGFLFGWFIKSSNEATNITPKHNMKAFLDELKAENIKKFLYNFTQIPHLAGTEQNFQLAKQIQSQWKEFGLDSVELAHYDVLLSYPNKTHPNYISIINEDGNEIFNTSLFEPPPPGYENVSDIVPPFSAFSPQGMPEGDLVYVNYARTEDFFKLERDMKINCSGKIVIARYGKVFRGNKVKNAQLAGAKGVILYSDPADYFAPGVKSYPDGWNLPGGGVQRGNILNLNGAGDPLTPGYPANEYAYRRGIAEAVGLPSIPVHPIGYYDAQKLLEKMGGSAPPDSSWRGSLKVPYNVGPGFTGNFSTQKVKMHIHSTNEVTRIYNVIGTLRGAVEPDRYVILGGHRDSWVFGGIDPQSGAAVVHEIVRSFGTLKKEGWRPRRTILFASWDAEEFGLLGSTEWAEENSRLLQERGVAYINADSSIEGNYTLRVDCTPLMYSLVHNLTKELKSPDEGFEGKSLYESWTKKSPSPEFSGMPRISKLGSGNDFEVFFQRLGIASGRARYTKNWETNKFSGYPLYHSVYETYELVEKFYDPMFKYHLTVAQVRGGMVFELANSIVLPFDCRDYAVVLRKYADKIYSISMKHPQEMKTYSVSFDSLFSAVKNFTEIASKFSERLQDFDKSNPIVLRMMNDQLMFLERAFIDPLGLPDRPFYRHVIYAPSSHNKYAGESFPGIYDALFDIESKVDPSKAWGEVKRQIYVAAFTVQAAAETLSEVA

Turning to YC-27 800CW, in assay [1], the Kd came out at 8 nM.

As for unlabeled YC-27, the IC50 (usually the concentration at which inhibition is half-maximal) in assay [2] was 1700 nM.

The record behind these values is article PMC3997074, “Pharmacokinetic and Biodistribution Assessment of a Near Infrared-Labeled PSMA-Specific Small Molecule in Tumor-Bearing Mice” (Prostate Cancer, 2014).
